Measurements as given in patent US20140154389A1, “PRODUCTION OF CHEESE WITH S. THERMOPHILUS” (DuPont Nutrition BioSciences ApS, priority 2011, published 2014).

System: urease enzyme of ur(+) S. thermophilus
Test: Floating curd experiment in test tubes (Example 3)
Parameters: species or system Streptococcus thermophilus
Conditions: milk fermented at 35° C. to pH 4.65, sample heated at about 66° C. for 2 x 10 minutes; flurofamide added to the blend of Lactococci and ur(+) S. thermophilus
Procedure: Four experiments were conducted in which milk was treated with various bacteria. In experiment 1, only Lactococci bacteria were added. In experiment 2, a blend of Lactococci bacteria and ur(+) S. thermophilus bacteria were added. In experiment 3, a blend of Lactococci bacteria, ur(+) S. thermophilus bacteria, and the urease inhibitor flurofamide were added. In experiment 4, only ur(+) S. thermophilus bacteria were added.
In each experiment, the milk was fermented with the bacteria at 35° C. until the cheese reached a pH of 4.65. A sample of the cheese was placed into a test tube, which was heated at about 66° C. for about 10 minutes. After 10 minutes of heating, a small pipette or thin wire was used to agitate the sample. The samples were held at about 66° C. for another ten minutes, at which time the photograph of the test tubes depicted in FIG. 3, was taken.
Test tube 4 is a positive control that contains ur(+) S. thermophilus, which has urease enzymes that can hydrolyze urea in milk.

NP(N)(=O)NC(=O)c1ccc(F)cc1 [flurofamide]
floating curd in test tube: no floating curd
